Test results as given in patent US20110223221A1, “STABILIZATION PROCESSES OF CATION RADICALS OF PHENOTHIAZINIC COMPOUNDS, COSMECEUTICAL FORMULATIONS AND METHODS FOR SKIN DISEASES AND DISTURBANCES PREVENTION” (priority 2008, published 2011).

Legend:
[1] = UV light transmittance in a quartz plate (Australian Method); format: physicochemical; details: solution of 2.0 mg/cm^2 in a quartz plate, 320 to 360 nm
Method: In order to analyze the transmittance of UV light in the wavelength of 320 to 360 nm, solutions of 2.0 mg/cm^2 of the phenothiazines TR, TFP and FP were used in a quartz plate.
As it can be observed, in these conditions, TR, TFP and FP block the passage of almost 100% of UV light incidence (FIG. 1). This evaluation was obtained based on the Australian Method (Perassinoto, N. L., Journal In Comesto, VII Ed., 2006), which was elected the most adequate, because it considers the ε of UVA region of absorption. The other methods are based in the 320 and 360 nm absorption ratio and can generate false negative results. According to the Australian Method, it will be a good sunscreen the compound that blocks 90% of UVA light incidence. In the case of the said cation radicals of the phenothiazines of the present invention, the blockage was of 99.99%.
A solution of 2.0 mg of drug/cm^2 was submitted to an analytical assay in a quartz plate, in the wavelength range from 320 to 360 nm, in order to verify the area of UV light transmittance (FIG. 7).
This evaluation was performed based in the Australian Method (Perassinoto, N. L.; Journal In Comesto; VII edition; p. 06; 2006), which was elected the most adequate, because it considers the ε of UVA region of absorption. The other methods are based in the 360 and 320 nm absorption ratio and can generate false negative results. According to the Australian Method, it will be a good sunscreen the compound that blocks 90% of UVA light incidence.

[2] = biological target: methionine 80 of cytochrome c (Homo sapiens, UniProt P99999); experiment: Photooxidation of model protein cytochrome c under UV irradiation, measured by dislocation to the blue of the Soret band; format: biochemical; details: for initial rate of dislocation to the blue of the Soret band: pH=4.0, 120 min UV (without drug 0.42); for effect on damage to cytochrome c: stabilized cation radicals 25 μM
Sequence of methionine 80 of cytochrome c (Homo sapiens, UniProt P99999) (P99999 whole entry): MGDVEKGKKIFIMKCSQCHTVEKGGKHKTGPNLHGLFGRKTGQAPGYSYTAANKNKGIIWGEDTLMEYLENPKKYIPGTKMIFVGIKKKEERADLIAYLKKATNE
Method: (§1) It was analyzed the effect of the concentration of the phenothiazine derived compounds of the present invention TR (graph A, FIG. 2) and TFP (graph B, FIG. 2), on the photooxidation of the model protein (methionine 80 of cytochrome c), measured by the degree of deviation to the blue of the Soret band.
(§2) The white circle, in A and B, represents the damage caused to the protein after two hours of irradiation under UV light at 254 nm, at temperature of 25° C., at pH 4.
(§3) The effect of the media pH on the initial velocity of oxidation of methionine 80 of cytochrome c was analyzed at an UV irradiation of 254 nm, during 120 min, in the absence and in the presence of the stabilized cation radicals of TR, TFP and FP (FIG. 3). In the presence of the stabilized cation radicals of TR, TFP and FP, de concentration range of 5 to 2500 μM for pH 4.0 and the concentration range of 25 to 2500 μM for the pH range of 3.0 to 7.0 were used.
(§4) Samples containing cytochrome c 3 μM and TR 25 μM were irradiated at 254 nm, in phosphate buffer 5 mM, pH=4.0, at […]., in a cuvette, at 4 cm from a UV lamp of 4 W. The spectrum of cytochrome c and of phenothiazine were obtained before the irradiation (fine solid line of FIG. 4) and after 60 and 120 min of irradiation (dotted line and thick solid line, respectively, of FIG. 4). The spectrum shown in the curves corresponds to the overlapping spectrum changes of the phenothiazines detected during the same indicated time points.
(§5) The experiment described in the Example 4 was repeated for different concentrations of phenothiazines. The initial rate of dislocation to the blue of the Soret band was defined regarding the concentration of phenothiazine.
(§6) The irradiation of the cytochrome c was performed during 120 min, pH=4.0 and under UV lamp of 4 W, which led to the dislocation to the blue of the Soret band from 409 to 406 nm, with initial rate of 0.42 ms^−1 (open circle, FIG. 5).
(§7) Irradiation of the cytochrome c 3 μM was performed, for a pH variation range from 3.0 to 7.0. In this pH range, the phenothiazine remained predominately protonated due to its pKa of 8.1. […] In the said pH range, the initial rate of dislocation to the blue of the Soret band was determined, after 120 min of UV irradiation, in the presence and in the absence of TR (FIG. 6).

[3] = Absorption bands of the cationic radicals; format: physicochemical; details: pre-micellic aggregates and micelles
[4] = test system: methionine 80 of cytochrome c; experiment: Photooxidation of model protein cytochrome c under UV irradiation, measured by dislocation to the blue of the Soret band; format: biochemical; details: pH=4.0, 120 min UV (without drug 406 nm)
Sequence of methionine 80 of cytochrome c (P99999 whole entry): as above
Method: as §1, §2, §3, §4, §5, §6, §7

[5] = two hours UV 254 nm, 25° C., pH 4

SMILES | blockage of the passage of UV light incidence [1] [%] | concentration up to which increasing drug exacerbated the damage (maximum damage) [2, 5] [µM] | absorption band of the cationic radical [3] [nm] | effect on rate of dislocation to the blue of the Soret band ([2]; 25 μM, pH range from 5.0 to 7.0, 120 min UV) | increase of the initial rate of dislocation to the blue ([2]; 25 μM, pH=3.0) [%] | increase of the initial rate of dislocation to the blue ([2]; 25 μM, pH=4.0) [%] | effect on dislocation rate to the blue ([2]; drug 5 μM, pH=4.0, 120 min UV) | initial rate of dislocation to the blue of the Soret band ([2]; drug 25 μM) [ms^−1] | initial rate of dislocation to the blue of the Soret band ([2]; drug 2500 μM) [ms^−1] | reduction of the initial rate of dislocation to the blue of the Soret band ([2]; high concentrations, pH=4.0) | effect on damage to cytochrome c ([2]; pH range from 5.0 to 3.0) | effect on damage to cytochrome c ([2]; pH range from 5.0 to 7.0) | effect on photooxidation damage of cytochrome c at very low concentrations [2, 5] | Soret band after irradiation ([4]; drug 25 μM) [nm] | Soret band after irradiation ([4]; drug 2500 μM) [nm]
c1ccc2c(c1)Nc1ccccc1S2 [PHT, 10H-phenothiazine] | ~100 |  |  |  |  |  |  |  |  |  |  |  |  |  | 
OCCN1CCN(CCCN2c3ccccc3Sc3ccc(C(F)(F)F)cc32)CC1 [FP, 2-[4-[3-[2-(trifluoromethyl)-10H-phenothiazin-10-yl]propyl]piperazin-1-yl]ethanol] | ~100 | 10 | 520 |  |  |  |  |  |  |  |  |  |  |  | 
CN1CCN(CCCN2c3ccccc3Sc3ccc(C(F)(F)F)cc32)CC1 [TFP, 10-[3-(4-methylpiperazin-1-yl)propyl]-2-(trifluoromethyl)-10H-phenothiazine] | ~100 |  | 520 |  |  |  |  |  |  |  |  |  |  |  | 
CSc1ccc2c(c1)N(CCC1CCCCN1C)c1ccccc1S2 (stereo not drawn) [TR, 10-[2-(1-methyl-2-piperidyl)ethyl]-2-methylsulfanyl-phenothiazine] | ~100 | 25 | 615 | slight reduction | 250 | ~50 | discrete reduction | 0.6 | 0.23 | around 50% | progressively increased the damage | slightly protected | slight protection | 405 | 407
